Reference: patent USRE47428E1, “Modulators of methyl modifying enzymes, compositions and uses thereof” (Constellation Pharmaceuticals, Inc., priority 2013, dated 2019)
Like-named read-outs stand apart in the source and are kept apart here.

Assays:
Y641N EZH2 = Y641N EZH2 (Homo sapiens, UniProt Q15910, Y641N); test: Y641N EZH2 assay, H3K27Me2 oligonucleosomes as substrate; type: biochemical
Protocol: (§1) Assays were carried out by mixing rPRC2 together with biotinylated oligonucleosome substrates in the presence of the radio-labeled enzyme co-factor, S-adenosyl-L-methionine (^3H SAM) (Perkin Elmer) and monitoring the enzymatically mediated transfer of tritiated methyl groups from ^3H SAM to histone lysine residues. The amount of resulting tritiated methyl histone product was measured by first capturing the biotinylated oligonucleosomes in streptavidin (SAV) coated FlashPlates (Perkin Elmer), followed by a wash step to remove un-reacted ^3H SAM, and then counting on a TopCount NXT 384 well plate scintillation counter (Perkin Elmer). The final assay conditions for EZH2 were as follows: 50 mM Tris Buffer pH 8.5, 1 mM DTT, 69 μM Brij-35 detergent, 5.0 mM MgCl2, 0.1 mg/mL BSA, 0.2 μM ^3H SAM, 0.2 μM biotinylated oligonucleosomes, 3.6 μM H3K27me3 peptide and 2 nM EZH2.
(§2) A 12.5 μL volume of the HMT enzyme, H3K27me3 peptide and oligonucleosome substrate in assay buffer was added to each well of the assay plate using a Multidrop Combi (Thermo-Fisher). Compounds were pre-incubated with the enzyme for 20 min, followed by initiation of the methyltransferase reaction by addition of 12.5 μL of ^3H SAM in assay buffer (final volume=25 μL). The final concentrations of compounds ranged from a top default concentration of 80 μM down to 0.16 μM in ten 2-fold dilution steps. Reactions were carried out for 60 minutes and quenched with 20 μL per well of 1.96 mM SAH, 50 mM Tris pH 8.5, 200 mM EDTA. Stopped reactions were transferred to SAV coated Flash-plates (Perkin Elmer), incubated for 120 min, washed with a plate washer, and then read on the TopCount NXT (1.0 min/well) to measure the amount of methyl histone product formed during the reaction.

EZH2 = EZH2 (Homo sapiens, UniProt Q15910); test: EZH2 assay: rPRC2 methyltransferase, 3H SAM FlashPlate; type: biochemical; conditions: 0.2 μM 3H SAM, 2 nM EZH2
Protocol: as §1, §2

[1] = system: H3K27me3 mark in HeLa cells; test: H3K27me3 Alpha Hela Assay (AlphaLISA); type: cell-based; conditions: 72 hrs incubation
Protocol: H3K27me3 Alpha Hela Assay (AlphaLISA).
Ten different doses of each test compound (in a series of 3-fold dilutions) were plated in duplicate 384-well tissue culture treated plates (Catalog #781080; Greiner Bio One; Monroe, N.C.). Hela cells grown in culture were trypsinized and counted using a Countess® cell counter (Catalog #C10281; Life Technologies, Grand Island, N.Y.). Cell were diluted to 67,000 cells per mL in 10% DMEM (Catalog #10569-010 Life Technologies, Grand Island, N.Y.) and 15 μL (1,000 cells) were plated into each well using the Biotek MicroFlo™ Select Dispenser (BioTek Instruments, Inc. Vermont, USA),) of the 384-well plate. Plates were incubated at 37° C./5% CO2 for 72 hrs. One of the duplicate plates was processed for HeLa assay and the other for viability.
To the plate processed for AlphaLISA was added 5 μL per well Cell-Histone Lysis buffer (1×) (Catalog #AL009F1 Perkin Elmer; Waltham, Mass.) and the plate was incubated at RT for 30 minutes on a plate shaker with low speed (Model #4625-Q Thermo Scientific; Waltham, Mass.). Then, 10 μL per well Histone Extraction buffer (catalog #AL009F2; Perkin Elmer; Waltham, Mass.) was added and the plate further incubated at RT for 20 min on plate shaker with low speed. To each well was then added 10 μL per well of a 5× mix of anti-K27me3 acceptor beads plus Biotinylated anti-Histone H3 (C-ter) Antibody (diluted to 3 nM final) (Catalog #AL118 Perkin Elmer; Waltham, Mass.). Dilution of the acceptor beads and then anti-Histone H3 was with 1× Histone Detection buffer (Catalog #AL009F3 Perkin Elmer; Waltham, Mass.) which was produced diluted from the 10× stock provided. The plate was sealed with an aluminum plate sealer and incubated at 23° C. for 60 min. […] The plates were then read using an EnVision-Alpha Reader (model #2104 Perkin Elmer; Waltham, Mass.).
Data from both assays was analyzed using Assay Assistant (Constellation Pharmaceuticals In-house product) and Activity Base (IDBS Ltd, Surrey, UK) template. […] Readout of DMSO wells were used to normalize the data. […]

[2] = system: H3K27me3 mark in HeLa cells; test: H3K27me3 MSD Hela Assay; type: cell-based
Protocol: Trypsinized HeLa cells were counted and diluted in 10% DMEM (Life Technologies, Cat. #10569) to 5000 cells/75 μL. Seventy-five μL of cells were place in each well of a 96-well flat-bottomed plate and incubated at 37° C. for 4 hours. Twenty-five μL of test compound (at various concentrations) was added to the cells and incubation continued at 37° C. for 96 hours. Media was then removed and the cells rinsed once with ice cold PBS. Forty μL of ice-cold MSD Buffer AT (10 mM HEPES, pH 7.9, 5 mM MgCl2, 0.25M sucrose, Benzonase (1:10000), 1% Triton X-100 supplemented with fresh 1× Protease Inhibitor cocktail and 1 mM 4-(2-Aminoethyl)benzenesulfonyl fluoride hydrochloride (AEBSF)) was added to each well and the plates placed on ice for 30 minutes. Ten μL of 5M NaCl was then added to each well and incubation on ice continued for another 15 minutes. The material in each well was suspended pipetting up and down and then transferred to a new 96 well plate. […]
The antibody mix was then removed and the wells washed with Blocker A. One hundred-fifty μL of freshly prepared 1×MSD Read Buffer (Meso-Scale Discovery; Cat #R927C-2) was then added to each well and the plates read on a MSD Sector 2400 Plate Reader.
Data was analyzed using Assay Assistant (Constellation Pharmaceuticals In-house product) and Activity Base (IDBS Ltd, Surrey, UK) template. […] Readout of DMSO wells were used to normalize the data. […]

Sequence of EZH2 (Q15910 whole entry): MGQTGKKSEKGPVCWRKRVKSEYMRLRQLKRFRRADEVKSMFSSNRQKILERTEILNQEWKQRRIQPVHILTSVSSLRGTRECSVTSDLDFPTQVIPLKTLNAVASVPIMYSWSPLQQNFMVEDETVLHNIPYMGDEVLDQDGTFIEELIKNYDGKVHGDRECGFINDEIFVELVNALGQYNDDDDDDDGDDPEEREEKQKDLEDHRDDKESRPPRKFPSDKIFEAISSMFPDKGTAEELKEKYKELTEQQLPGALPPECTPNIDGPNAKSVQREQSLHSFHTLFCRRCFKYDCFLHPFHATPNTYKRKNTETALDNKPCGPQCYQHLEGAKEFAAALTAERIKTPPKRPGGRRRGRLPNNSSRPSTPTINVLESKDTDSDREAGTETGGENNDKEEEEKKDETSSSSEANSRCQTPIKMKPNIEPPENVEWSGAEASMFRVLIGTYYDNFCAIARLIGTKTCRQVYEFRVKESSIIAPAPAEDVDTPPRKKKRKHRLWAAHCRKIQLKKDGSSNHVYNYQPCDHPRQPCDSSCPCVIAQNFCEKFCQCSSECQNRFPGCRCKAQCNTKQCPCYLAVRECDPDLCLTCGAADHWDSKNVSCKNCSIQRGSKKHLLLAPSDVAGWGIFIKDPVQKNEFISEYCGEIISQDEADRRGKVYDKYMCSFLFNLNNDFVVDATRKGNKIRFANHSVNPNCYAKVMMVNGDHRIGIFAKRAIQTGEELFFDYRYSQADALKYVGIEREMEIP
Sequence of EZH2 (O75530 whole entry partner): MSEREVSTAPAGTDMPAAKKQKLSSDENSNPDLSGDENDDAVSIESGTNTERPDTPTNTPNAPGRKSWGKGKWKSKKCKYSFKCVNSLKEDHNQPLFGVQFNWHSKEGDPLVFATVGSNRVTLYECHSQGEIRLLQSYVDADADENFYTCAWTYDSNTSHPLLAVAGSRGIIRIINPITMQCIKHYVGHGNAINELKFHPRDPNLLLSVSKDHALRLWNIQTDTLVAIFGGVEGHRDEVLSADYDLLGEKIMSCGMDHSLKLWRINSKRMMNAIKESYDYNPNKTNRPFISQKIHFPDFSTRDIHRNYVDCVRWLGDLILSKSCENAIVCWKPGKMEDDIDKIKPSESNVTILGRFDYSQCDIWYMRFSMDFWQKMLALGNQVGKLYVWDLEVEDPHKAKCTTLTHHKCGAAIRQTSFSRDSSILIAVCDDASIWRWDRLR
Sequence of EZH2 (Q15022 whole entry partner): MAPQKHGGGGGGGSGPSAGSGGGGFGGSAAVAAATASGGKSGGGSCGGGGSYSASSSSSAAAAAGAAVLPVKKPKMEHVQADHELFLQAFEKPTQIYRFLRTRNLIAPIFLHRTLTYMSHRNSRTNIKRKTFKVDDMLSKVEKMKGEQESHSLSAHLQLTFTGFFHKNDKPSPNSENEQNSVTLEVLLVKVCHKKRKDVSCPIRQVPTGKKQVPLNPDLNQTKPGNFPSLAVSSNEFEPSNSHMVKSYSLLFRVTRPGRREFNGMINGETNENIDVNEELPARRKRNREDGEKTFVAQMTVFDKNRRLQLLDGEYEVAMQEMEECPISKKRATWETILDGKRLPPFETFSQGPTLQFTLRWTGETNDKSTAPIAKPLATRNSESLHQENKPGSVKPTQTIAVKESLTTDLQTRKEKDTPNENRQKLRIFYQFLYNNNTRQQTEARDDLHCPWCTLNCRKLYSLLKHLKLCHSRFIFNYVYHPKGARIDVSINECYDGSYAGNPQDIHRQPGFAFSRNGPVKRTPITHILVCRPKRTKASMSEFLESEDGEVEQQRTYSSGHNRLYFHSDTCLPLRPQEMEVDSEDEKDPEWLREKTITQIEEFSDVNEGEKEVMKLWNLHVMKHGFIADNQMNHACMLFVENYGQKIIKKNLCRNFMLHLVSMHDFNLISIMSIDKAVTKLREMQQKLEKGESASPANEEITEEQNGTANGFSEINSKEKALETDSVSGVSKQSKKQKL
Sequence of Y641N EZH2 (Q15910 whole entry Y641N): as the sequence (Q15910 whole entry) above, with Y641N counted along it
Sequence of Y641N EZH2 (O75530 whole entry partner): as the sequence (O75530 whole entry partner) above
Sequence of Y641N EZH2 (Q15022 whole entry partner): as the sequence (Q15022 whole entry partner) above

Question: How did the IC50 (Y641N EZH2) turn out when COc1cc(C)[nH]c(=O)c1CNC(=O)c1c(C)n(C(C)C2CCC(F)(F)CC2)c2ccccc12 (racemic) [Compound 304, (±)-1-(1-(4,4-difluorocyclohexyl)ethyl)-N-((4-methoxy-6-methyl-2-oxo-1,2-dihydropyridin-3-yl)methyl)-2-methyl-1H-indole-3-carboxamide] was run?
Answer: < 100 nM

Question: And the IC50 (EZH2; EZH2 IC50, rPRC2, biotinylated oligonucleosomes)?
Answer: < 100 nM

Question: And the EC50 ([1]; Homo sapiens)?
Answer: < 400 nM

Question: And the EC50 ([2]; Homo sapiens)?
Answer: < 400 nM

Question: With CCS(=O)(=O)N1CCC(C(C)n2c(C)c(C(=O)NCc3c(OC)cc(C)[nH]c3=O)c3ccccc32)CC1 (single isomer, unassigned) [Compound 345, (R or S)-1-(1-(1-(ethylsulfonyl)piperidin-4-yl)ethyl)-N-((4-methoxy-6-methyl-2-oxo-1,2-dihydropyridin-3-yl)methyl)-2-methyl-1H-indole-3-carboxamide] as the molecule, how does the EC50 ([1]; Homo sapiens) read?
Answer: < 400 nM

Question: With COc1cc(C)[nH]c(=O)c1CNC(=O)c1c(C)n(C(C)C2CCCNC2)c2ccccc12 (stereo not drawn) [Compound 315] as the molecule, how does the EC50 [2] read?
Answer: > 10000 nM

Question: Which IC50 (Y641N EZH2; Y641N EZH2 mutant enzyme, H3K27Me2 oligonucleosomes, read-out: Y641N EZH2 IC50) does the source give for “(R or S)-1-(1-(4-(isopropylsulfonyl)cyclohexyl)ethyl)-N-((4-methoxy-6-methyl-2-oxo-1,2-dihydropyridin-3-yl)methyl)-2-methyl-1H-indole-3-carboxamide [Compound 355]” here?
Answer: < 100 nM

Question: What about the IC50 (EZH2; rPRC2, biotinylated oligonucleosomes, read-out: EZH2 IC50) of the same molecule?
Answer: < 100 nM

Question: And the EC50 [1]?
Answer: < 400 nM
